Experiments:
BRG-1 = BRG-1 (Homo sapiens, UniProt P51532); experiment: ATPase catalytic activity assay of BRG-1 (ADP-Glo); assay type: biochemical; conditions: ATPase catalytic activity, ADP-Glo; for IC50: read-out: BRG1 IC50 (μM)*; for Emax: read-out: BRG1 Max % Inhibition
Outline: (§1)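 Measurement is luminescence, reflecting ADP produced by ATPase turnover. The two-step ADP-Glo detection consists of ATP depletion for 40 min and ADP-to-ATP conversion with luciferase for 60 min, both at room temperature.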

BRM = BRM (Homo sapiens, UniProt P51531); experiment: ATPase catalytic activity assay of BRM (ADP-Glo); assay type: biochemical; conditions: for IC50: read-out: BRM IC50 (μM)*
Outline: as §1

BRM, sequence (P51531 whole entry): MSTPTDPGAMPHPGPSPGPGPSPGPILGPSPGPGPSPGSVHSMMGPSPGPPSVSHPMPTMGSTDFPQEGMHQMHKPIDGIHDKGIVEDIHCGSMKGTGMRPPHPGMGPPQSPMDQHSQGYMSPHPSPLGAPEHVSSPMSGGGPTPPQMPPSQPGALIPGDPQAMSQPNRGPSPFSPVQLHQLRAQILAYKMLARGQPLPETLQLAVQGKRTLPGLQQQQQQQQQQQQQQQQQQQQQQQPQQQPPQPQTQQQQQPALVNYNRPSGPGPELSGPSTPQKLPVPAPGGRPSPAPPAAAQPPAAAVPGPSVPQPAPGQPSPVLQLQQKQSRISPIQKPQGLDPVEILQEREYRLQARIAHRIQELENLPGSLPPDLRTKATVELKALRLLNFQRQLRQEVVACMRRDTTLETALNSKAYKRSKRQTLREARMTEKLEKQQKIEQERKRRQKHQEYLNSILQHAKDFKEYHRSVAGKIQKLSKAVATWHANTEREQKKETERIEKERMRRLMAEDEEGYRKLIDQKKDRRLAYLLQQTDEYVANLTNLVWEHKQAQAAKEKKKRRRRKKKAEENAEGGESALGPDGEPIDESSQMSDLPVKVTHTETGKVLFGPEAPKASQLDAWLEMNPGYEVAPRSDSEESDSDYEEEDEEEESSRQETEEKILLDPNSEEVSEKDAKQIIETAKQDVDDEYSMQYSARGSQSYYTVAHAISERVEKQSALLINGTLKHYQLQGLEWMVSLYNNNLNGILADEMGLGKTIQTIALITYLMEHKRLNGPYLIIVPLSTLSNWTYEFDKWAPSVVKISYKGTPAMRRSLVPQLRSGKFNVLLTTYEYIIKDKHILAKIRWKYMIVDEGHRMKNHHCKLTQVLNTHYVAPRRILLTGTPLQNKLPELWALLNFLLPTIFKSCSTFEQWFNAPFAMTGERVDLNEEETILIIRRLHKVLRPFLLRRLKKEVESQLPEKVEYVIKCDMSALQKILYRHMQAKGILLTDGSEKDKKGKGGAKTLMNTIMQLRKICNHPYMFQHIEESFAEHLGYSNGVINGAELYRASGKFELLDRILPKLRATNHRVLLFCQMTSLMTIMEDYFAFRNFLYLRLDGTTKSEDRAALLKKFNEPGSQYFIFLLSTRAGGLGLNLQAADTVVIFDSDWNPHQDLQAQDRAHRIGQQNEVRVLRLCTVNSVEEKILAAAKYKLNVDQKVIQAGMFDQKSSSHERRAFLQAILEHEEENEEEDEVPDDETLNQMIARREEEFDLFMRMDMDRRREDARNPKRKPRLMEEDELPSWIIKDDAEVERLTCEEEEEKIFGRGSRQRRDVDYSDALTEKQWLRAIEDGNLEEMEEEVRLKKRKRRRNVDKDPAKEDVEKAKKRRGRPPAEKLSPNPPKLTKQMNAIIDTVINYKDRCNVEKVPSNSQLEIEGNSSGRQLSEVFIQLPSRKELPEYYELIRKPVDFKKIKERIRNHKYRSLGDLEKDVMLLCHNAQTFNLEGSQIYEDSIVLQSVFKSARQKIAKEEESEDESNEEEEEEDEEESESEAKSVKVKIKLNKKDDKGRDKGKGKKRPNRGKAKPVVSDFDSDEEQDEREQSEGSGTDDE
BRG-1, sequence (P51532 whole entry): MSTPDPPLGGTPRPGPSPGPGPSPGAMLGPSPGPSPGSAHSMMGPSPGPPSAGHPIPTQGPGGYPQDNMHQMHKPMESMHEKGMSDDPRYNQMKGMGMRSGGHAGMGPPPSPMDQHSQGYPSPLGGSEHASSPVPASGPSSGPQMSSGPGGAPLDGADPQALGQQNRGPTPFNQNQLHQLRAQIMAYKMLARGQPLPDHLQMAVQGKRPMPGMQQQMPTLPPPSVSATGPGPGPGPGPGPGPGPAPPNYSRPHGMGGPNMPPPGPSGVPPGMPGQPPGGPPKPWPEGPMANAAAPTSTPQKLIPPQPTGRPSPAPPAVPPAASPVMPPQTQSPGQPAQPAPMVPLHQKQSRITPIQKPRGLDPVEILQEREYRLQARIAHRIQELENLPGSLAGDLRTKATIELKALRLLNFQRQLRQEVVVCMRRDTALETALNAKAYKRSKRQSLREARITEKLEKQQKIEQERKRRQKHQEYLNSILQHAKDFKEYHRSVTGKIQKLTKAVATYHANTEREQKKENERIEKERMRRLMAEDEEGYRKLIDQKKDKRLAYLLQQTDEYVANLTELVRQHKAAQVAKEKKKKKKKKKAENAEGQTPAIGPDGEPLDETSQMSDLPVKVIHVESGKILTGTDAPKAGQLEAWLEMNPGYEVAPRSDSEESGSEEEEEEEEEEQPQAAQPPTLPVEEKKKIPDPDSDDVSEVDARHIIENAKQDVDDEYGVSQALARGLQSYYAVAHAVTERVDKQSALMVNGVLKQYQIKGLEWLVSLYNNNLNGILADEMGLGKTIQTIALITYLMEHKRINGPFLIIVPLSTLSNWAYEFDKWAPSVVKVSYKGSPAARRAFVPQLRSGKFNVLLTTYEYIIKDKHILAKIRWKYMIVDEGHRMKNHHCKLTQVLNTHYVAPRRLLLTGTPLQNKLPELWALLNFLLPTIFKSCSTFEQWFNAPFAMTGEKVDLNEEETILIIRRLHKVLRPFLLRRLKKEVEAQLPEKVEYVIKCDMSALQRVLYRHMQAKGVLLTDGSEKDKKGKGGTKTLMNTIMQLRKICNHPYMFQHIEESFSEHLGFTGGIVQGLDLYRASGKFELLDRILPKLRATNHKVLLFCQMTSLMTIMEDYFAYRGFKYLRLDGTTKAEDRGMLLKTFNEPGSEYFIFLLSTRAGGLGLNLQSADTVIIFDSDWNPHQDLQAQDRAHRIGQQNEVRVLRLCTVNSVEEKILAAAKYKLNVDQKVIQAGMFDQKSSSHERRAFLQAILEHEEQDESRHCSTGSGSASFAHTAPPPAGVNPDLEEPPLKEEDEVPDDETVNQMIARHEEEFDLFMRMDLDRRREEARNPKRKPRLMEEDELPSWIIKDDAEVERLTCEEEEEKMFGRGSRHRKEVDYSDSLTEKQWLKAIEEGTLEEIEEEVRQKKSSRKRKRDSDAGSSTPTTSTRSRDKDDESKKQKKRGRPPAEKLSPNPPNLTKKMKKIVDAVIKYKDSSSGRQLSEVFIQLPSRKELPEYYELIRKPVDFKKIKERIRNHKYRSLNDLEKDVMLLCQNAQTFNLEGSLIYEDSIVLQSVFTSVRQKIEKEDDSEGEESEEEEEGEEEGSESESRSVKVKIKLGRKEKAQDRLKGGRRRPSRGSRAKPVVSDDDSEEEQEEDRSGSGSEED

Row | IC50 (BRG-1) [µM] | Emax (BRG-1) [%] | BRM Max % Inhibition (BRM) [%] | IC50 (BRM) [µM] | Compound
1 | 0.1 to 1 | > 90 | >95 | < 0.1 | C[C@@H]1CN(c2cccc(-c3csc(NC(=O)CNC(=O)c4cccc(C5(CO)CC5)c4)n3)n2)C[C@H](C)O1 [Compound 182, N-[2-[[4-[6-[(cis)-2,6-dimethylmorpholin-4-yl]-2-pyridyl]thiazol-2-yl]amino]-2-oxo-ethyl]-3-[1-(hydroxymethyl)cyclopropyl]benzamide]
2 | 1 to 5 | > 70 | >90 | 0.1 to 1 | C[C@@H]1CN(c2cccc(-c3csc(NC(=O)CNC(=O)c4cccc(C5(F)COC5)c4)n3)c2)C[C@H](C)O1 [Compound 183, N-(2-((4-(3-((cis)-2,6-dimethylmorpholino)phenyl)thiazol-2-yl)amino)-2-oxoethyl)-3-(3-fluorooxetan-3-yl)benzamide]
3 | 1 to 5 | > 80 | >90 | 0.1 to 1 | C[C@@H]1CN(c2cccc(-c3csc(NC(=O)CNC(=O)c4cccc(C5(O)COC5)c4)n3)c2)C[C@H](C)O1 [Compound 184, N-(2-((4-(3-((2R,6S)-2,6-dimethylmorpholino)phenyl)thiazol-2-yl)amino)-2-oxoethyl)-3-(3-hydroxyoxetan-3-yl)benzamide]
4 | 1 to 5 | > 80 | >95 | 0.1 to 1 | Cn1ncc(-c2cccc(-c3csc(NC(=O)CNC(=O)c4cccc(C(C)(C)CO)c4)n3)c2)n1 [Compound 185, 3-(1-hydroxy-2-methylpropan-2-yl)-N-(2-((4-(3-(2-methyl-2H-1,2,3-triazol-4-yl)phenyl)thiazol-2-yl)amino)-2-oxoethyl)benzamide]
5 | 1 to 5 | > 70 | >95 | < 0.1 | C[C@@H]1CN(c2cccc(-c3csc(NC(=O)CNC(=O)c4ccc5c(c4)[C@@]4(CCC[C@@H]4O)CC5)n3)c2)C[C@H](C)O1 [Compound 186, (1R,2S)-N-(2-((4-(3-((cis)-2,6-dimethylmorpholino)phenyl)thiazol-2-yl)amino)-2-oxoethyl)-2-hydroxy-2′,3′-dihydrospiro[cyclopentane-1,1′-indene]-6′-carboxamide]
6 | 0.1 to 1 | > 70 | >95 | < 0.1 | C[C@@H]1CN(c2cccc(-c3csc(NC(=O)CNC(=O)c4cccc(C5(C)COC5)c4)n3)n2)C[C@H](C)O1 [Compound 187, N-[2-[[4-[6-[(cis)-2,6-dimethylmorpholin-4-yl]-2-pyridyl]thiazol-2-yl]amino]-2-oxo-ethyl]-3-(3-methyloxetan-3-yl)benzamide]
7 | 1 to 5 | > 50 | >90 | 0.1 to 1 | C[C@@H]1CN(c2cccc(-c3csc(NC(=O)CNC(=O)c4ccc5c(c4)[C@@]4(CCC[C@H]4O)CC5)n3)c2)C[C@H](C)O1 [Compound 188, (1R,2R)-N-(2-((4-(3-((cis)-2,6-dimethylmorpholino)phenyl)thiazol-2-yl)amino)-2-oxoethyl)-2-hydroxy-2′,3′-dihydrospiro[cyclopentane-1,1′-indene]-6′-carboxamide]
8 | 1 to 5 | > 50 | >90 | 0.1 to 1 | C[C@@H]1CN(c2cccc(-c3csc(NC(=O)CNC(=O)c4ccc5c(c4)[C@]4(CCC[C@@H]4O)CC5)n3)c2)C[C@H](C)O1 [Compound 189, (1S,2S)-N-(2-((4-(3-((cis)-2,6-dimethylmorpholino)phenyl)thiazol-2-yl)amino)-2-oxoethyl)-2-hydroxy-2′,3′-dihydrospiro[cyclopentane-1,1′-indene]-6′-carboxamide]
9 | 0.1 to 1 | > 70 | >90 | 0.1 to 1 | Cc1cnc(O)c(-c2cccc(-c3csc(NC(=O)CNC(=O)c4ccc5c(c4)[C@@](C)(CO)CC5)n3)n2)c1 [Compound 190, (S)-N-(2-((4-(2′-hydroxy-5′-methyl-[2,3′-bipyridin]-6-yl)thiazol-2-yl)amino)-2-oxoethyl)-3-(hydroxymethyl)-3-methyl-2,3-dihydro-1H-indene-5-carboxamide]
10 | 0.1 to 1 | > 80 | >90 | 0.1 to 1 | C[C@]1(CO)CCc2ccc(C(=O)NCC(=O)Nc3nc(-c4cccc(-c5cccnc5O)n4)cs3)cc21 [Compound 191, (S)-N-(2-((4-(2′-hydroxy-[2,3′-bipyridin]-6-yl)thiazol-2-yl)amino)-2-oxoethyl)-3-(hydroxymethyl)-3-methyl-2,3-dihydro-1H-indene-5-carboxamide]
11 | 1 to 5 | > 60 | >90 | 0.1 to 1 | Cn1ccc(-c2cccc(-c3csc(NC(=O)CNC(=O)c4ccc5c(c4)[C@@](C)(CO)CC5)n3)n2)n1 [Compound 192, (3S)-3-(hydroxymethyl)-3-methyl-N-[2-[[4-[6-(1-methylpyrazol-3-yl)-2-pyridyl]thiazol-2-yl]amino]-2-oxo-ethyl]indane-5-carboxamide]
12 | 1 to 5 | > 70 | >95 | 0.1 to 1 | C[C@@H]1CN(c2cccc(-c3csc(NC(=O)CNC(=O)c4ccc5c(c4)C4(CCCC4=O)CC5)n3)c2)C[C@H](C)O1 (stereo partly drawn) [Compound 195, N-(2-((4-(3-((cis)-2,6-dimethylmorpholino)phenyl)thiazol-2-yl)amino)-2-oxoethyl)-2-oxo-2′,3′-dihydrospiro[cyclopentane-1,1′-indene]-6′-carboxamide]
13 | 1 to 5 | > 60 | >90 | 0.1 to 1 | CC(C)(C)c1cccc(C(=O)NCC(=O)Nc2nc(-c3cccc(N4CCC4)c3)cs2)c1 [Compound 196, N-(2-((4-(3-(azetidin-1-yl)phenyl)thiazol-2-yl)amino)-2-oxoethyl)-3-(tert-butyl)benzamide]
14 | > 5 | < 30 | – | 1 to 5 | C[C@@]1(CO)CCc2c(C(=O)NCC(=O)Nc3nc(-c4cccc(-c5ccncc5)c4)cs3)cccc21 [Compound 197]
15 | 0.1 to 1 | > 95 | >95 | < 0.1 | C[C@@H]1CN(c2cc(F)cc(-c3csc(NC(=O)CNC(=O)c4ccc(F)c(C(C)(C)CO)c4)n3)c2)C[C@H](C)O1 [Compound 198, N-(2-((4-(3-((cis)-2,6-dimethylmorpholino)-5-fluorophenyl)thiazol-2-yl)amino)-2-oxoethyl)-4-fluoro-3-(1-hydroxy-2-methylpropan-2-yl)benzamide]
16 | < 0.1 | > 95 | >95 | < 0.1 | C[C@@H]1CN(c2cc(F)cc(-c3csc(NC(=O)CNC(=O)c4ccc(Cl)c(C(C)(C)CO)c4)n3)c2)C[C@H](C)O1 [Compound 199, 4-chloro-N-[2-[[4-[3-[(cis)-2,6-dimethylmorpholin-4-yl]-5-fluoro-phenyl]thiazol-2-yl]amino]-2-oxo-ethyl]-3-(2-hydroxy-1,1-dimethyl-ethyl)benzamide]
17 | 0.1 to 1 | > 80 | >95 | < 0.1 | C[C@@H]1CN(c2cccc(-c3csc(NC(=O)CNC(=O)c4ccc(F)c(C(C)(C)CO)c4)n3)c2)C[C@H](C)O1 [Compound 200, N-(2-((4-(3-((cis)-2,6-dimethylmorpholino)phenyl)thiazol-2-yl)amino)-2-oxoethyl)-4-fluoro-3-(1-hydroxy-2-methylpropan-2-yl)benzamide]
18 | 0.1 to 1 | > 90 | >95 | < 0.1 | Cc1cc(-c2cccc(-c3csc(NC(=O)CNC(=O)c4ccc(C)c(C(C)(C)CN)c4)n3)n2)ncn1 [Compound 201, 3-(2-amino-1,1-dimethyl-ethyl)-4-methyl-N-[2-[[4-[6-(6-methylpyrimidin-4-yl)-2-pyridyl]thiazol-2-yl]amino]-2-oxo-ethyl]benzamide]
19 | 1 to 5 | > 80 | >90 | 0.1 to 1 | C[C@@H]1CN(c2cccc(-c3csc(NC(=O)CNC(=O)c4cc(C(C)(C)C)ccn4)n3)c2)C[C@H](C)O1 [Compound 202, 4-tert-butyl-N-[2-[[4-[3-[(cis)-2,6-dimethylmorpholin-4-yl]phenyl]thiazol-2-yl]amino]-2-oxo-ethyl]pyridine-2-carboxamide]
20 | 0.1 to 1 | > 95 | >95 | < 0.1 | Cc1cc(-c2cccc(-c3csc(NC(=O)CNC(=O)c4ccc5c(c4)[C@](C)(CO)CC5)n3)n2)ncn1 [Compound 203, (3R)-3-(hydroxymethyl)-3-methyl-N-[2-[[4-[6-(6-methylpyrimidin-4-yl)-2-pyridyl]thiazol-2-yl]amino]-2-oxo-ethyl]indane-5-carboxamide]
21 | 0.1 to 1 | > 90 | >95 | < 0.1 | Cc1cc(-c2cccc(-c3csc(NC(=O)CNC(=O)c4ccc5c(c4)[C@@](C)(CO)CC5)n3)n2)ncn1 [Compound 204, (3S)-3-(hydroxymethyl)-3-methyl-N-[2-[[4-[6-(6-methylpyrimidin-4-yl)-2-pyridyl]thiazol-2-yl]amino]-2-oxo-ethyl]indane-5-carboxamide]
22 | 1 to 5 | > 70 | >95 | 0.1 to 1 | C[C@@H]1CN(c2cccc(-c3csc(NC(=O)CNC(=O)c4ccnc(C(C)(C)C)c4)n3)c2)C[C@H](C)O1 [Compound 205, 2-(tert-butyl)-N-(2-((4-(3-((cis)-2,6-dimethylmorpholino)phenyl)thiazol-2-yl)amino)-2-oxoethyl)isonicotinamide]

Source: patent publication US12685735B2 (Foghorn Therapeutics Inc., priority 2020, dated 2026)
